Source: paper PMC9151520 (Archives of Toxicology, 2022)
Where two headings read alike, the source gives them in different places.

What was measured:
[1] = test system: p53 signaling (p53RE-bla HCT-116 cells); assay: cells; type: cell-based
[2] = test system: p53 signaling (p53RE-bla HCT-116 cells)
[3] = test system: p53 signaling (p53RE-bla HCT-116 cells); remark: listed apart in the source
[4] = test system: p53 signaling (p53RE-bla HCT-116 cells); assay: cells; conditions: Homo sapiens
[5] = test system: p53 signaling (p53RE-bla HCT-116 cells); assay: cells; type: cell-based; remark: listed apart in the source
[6] = test system: p53 signaling (p53RE-bla HCT-116 cells); assay: cells; type: cell-based; conditions: Homo sapiens; for EC50: HCT-116
[7] = test system: p53 signaling (p53RE-bla HCT-116 cells); assay: cells; conditions: Homo sapiens; remark: listed apart in the source
[8] = HCT-116, read-out: p53 activation EC50, HLM
[9] = HCT-116, read-out: p53 activation EC50, cherry pick confirmation
[10] = HCT-116, read-out: p53 activation efficacy, cherry pick confirmation

## O=c1ccc2ccccc2o1 [Coumarin]
[1]
  p53 activation EC50, No MS: inactive
  p53 activation Efficacy, No MS: inactive
[2]
  p53 activation EC50, RLM: inactive
  p53 activation Efficacy, RLM: inactive
[3]
  p53 activation EC50, HLM: inactive
p53RE-bla HCT-116 cells
  Viability EC50, HLM: inactive
  Viability EC50, No MS: inactive
  Viability EC50, RLM: inactive
  Viability Efficacy, HLM: inactive
  Viability Efficacy, No MS: inactive
  Viability Efficacy, RLM: inactive
[4]; [8]
  EC50: 28.6 µM

## COP(=O)(OC)OC(=CCl)c1cc(Cl)c(Cl)cc1Cl [Tetrachlorovinphos]
[1]
  p53 activation EC50, No MS: inactive
  p53 activation Efficacy, No MS: inactive
[3]
  p53 activation EC50, HLM: inactive
p53RE-bla HCT-116 cells
  Viability EC50, HLM: inactive
  Viability EC50, No MS: inactive
  Viability EC50, RLM: inactive
  Viability Efficacy, HLM: inactive
  Viability Efficacy, No MS: inactive
  Viability Efficacy, RLM: inactive
[4]; [8]
  EC50: 16.4 µM

## COC(=O)N(OC)c1ccccc1COc1ccn(-c2ccc(Cl)cc2)n1 [Pyraclostrobin]
[1]
  p53 activation efficacy: 41.5523
[1]; Homo sapiens, HCT-116, read-out: p53 activation efficacy
  Emax: 36.4%
[1]; read-out: p53 activation EC50
  EC50: 2.62 µM
[2]
  p53 activation EC50: inactive
  p53 activation efficacy: inactive
[3]
  p53 activation EC50: inactive
p53RE-bla HCT-116 cells
  Viability EC50: inactive
  Viability efficacy: inactive
[4]; HCT-116, read-out: p53 activation efficacy
  Emax: 36.3%

## COP(=S)(OC)Oc1ccc([N+](=O)[O-])c(C)c1 [Fenitrothion]
[1]
  p53 activation EC50, cherry pick confirmation: inactive
  p53 activation EC50, primary screening: inactive
  p53 activation efficacy, cherry pick confirmation: inactive
  p53 activation efficacy, primary screening: inactive
[5]; Homo sapiens, HCT-116, 0.5 h
  EC50: 4.18 µM
[6]
  EC50: 10.4 µM
[3]
  p53 activation EC50, cherry pick confirmation: inactive
  p53 activation EC50, primary screening: inactive
  p53 activation efficacy, cherry pick confirmation: inactive
  p53 activation efficacy, primary screening: inactive
p53RE-bla HCT-116 cells
  Viability EC50, cherry pick confirmation: inactive
  Viability EC50, primary screening: inactive
  Viability efficacy, cherry pick confirmation: inactive
  Viability efficacy, primary screening: inactive
[7]; HCT-116
  EC50: 9.91 µM
[7]; HCT-116, read-out: efficacy
  Emax: 116%
[7]; [9]
  EC50: 9.34 µM
[7]; HCT-116, read-out: p53 activation EC50, primary screening
  EC50: 2.58 µM
[7]; [10]
  Emax: 93.3%
[7]; HCT-116, read-out: p53 activation efficacy, primary screening
  Emax: 59.9%

## Cc1cc(OC(=O)N(C)C)nn1C(=O)N(C)C [Dimetilan]
[1]
  p53 activation EC50, cherry pick confirmation: inactive
  p53 activation EC50, primary screening: inactive
  p53 activation efficacy, cherry pick confirmation: inactive
  p53 activation efficacy, primary screening: inactive
[5]
  EC50: Inactive
[6]
  EC50: 5.11 µM
[6]; HCT-116, read-out: efficacy
  Emax: 43.6%
[3]
  p53 activation EC50, cherry pick confirmation: inactive
  p53 activation efficacy, cherry pick confirmation: inactive
p53RE-bla HCT-116 cells
  Viability EC50, cherry pick confirmation: inactive
  Viability EC50, primary screening: inactive
  Viability efficacy, cherry pick confirmation: inactive
  Viability efficacy, primary screening: inactive
[7]; HCT-116
  EC50: 5.44 µM
[7]; HCT-116, read-out: efficacy
  Emax: 34.6%
[7]; [9]
  EC50: 6.19 µM
[7]; [10]
  Emax: 33.8%

## CNC(=O)Oc1ccc2c(c1)[C@]1(C)CCN(C)[C@@H]1N2C [Physostigmine]
[1]
  p53 activation EC50, No MS: inactive
  p53 activation Efficacy, No MS: inactive
[2]
  p53 activation EC50, RLM: inactive
  p53 activation Efficacy, RLM: inactive
[3]
  p53 activation EC50, HLM: inactive
p53RE-bla HCT-116 cells
  Viability EC50, HLM: inactive
  Viability EC50, No MS: inactive
  Viability EC50, RLM: inactive
  Viability Efficacy, HLM: inactive
  Viability Efficacy, No MS: inactive
  Viability Efficacy, RLM: inactive
[4]; [8]
  EC50: 7.07 µM

## CC(=O)NS(=O)(=O)c1ccc(N)cc1 [Sulfacetamide]
[1]
  p53 activation EC50, No MS: inactive
  p53 activation Efficacy, No MS: inactive
[2]
  p53 activation EC50, RLM: inactive
  p53 activation Efficacy, RLM: inactive
[3]
  p53 activation EC50, HLM: inactive
p53RE-bla HCT-116 cells
  Viability EC50, HLM: inactive
  Viability EC50, No MS: inactive
  Viability EC50, RLM: inactive
  Viability Efficacy, HLM: inactive
  Viability Efficacy, No MS: inactive
  Viability Efficacy, RLM: inactive
[4]; [8]
  EC50: 44.2 µM

## Oc1c(Cl)c(Cl)c(Cl)c(Cl)c1Cl [Pentachlorophenol]
[1]; Homo sapiens, HCT-116, read-out: EC50, p53 activation, cherry pick confirmation
  EC50: 14.1 µM
[1]; Homo sapiens, HCT-116, read-out: EC50, p53 activation, primary screening
  EC50: 13.4 µM
[1]; Homo sapiens, HCT-116, read-out: Efficacy, p53 activation, cherry pick confirmation
  Emax: 32.5%
[1]; Homo sapiens, HCT-116, read-out: Efficacy, p53 activation, primary screening
  Emax: 47.3%
[2]
  EC50, p53 activation, cherry pick confirmation: inactive
  EC50, p53 activation, primary screening: inactive
  Efficacy, p53 activation, cherry pick confirmation: inactive
  Efficacy, p53 activation, primary screening: inactive
[3]
  EC50, p53 activation, cherry pick confirmation: inactive
  Efficacy, p53 activation, cherry pick confirmation: inactive
p53RE-bla HCT-116 cells
  EC50, viability, cherry pick confirmation: inactive
  EC50, viability, primary screening: inactive
  Efficacy, viability, cherry pick confirmation: inactive
  Efficacy, viability, primary screening: inactive
[4]; HCT-116, read-out: EC50, p53 activation, primary screening
  EC50: 15.5 µM
[4]; HCT-116, read-out: Efficacy, p53 activation, primary screening
  Emax: 30.9%
